Data on 15 compounds can be found in paper PMC10076643, “Design, synthesis and anticancer activity studies of 3-(coumarin-3-yl)-acrolein derivatives: Evidenced by integrating network pharmacology and vitro assay” (Frontiers in Pharmacology, 2023).

For data set [1], the system named is A549 (human lung cancer cell line). The data set can be described thus: MTT antiproliferative assay, A549. Type of data set: cell-based. To be noted: for IC50: Homo sapiens, A549, MTT, 72 h. The text has this:
(§1) All the synthesized compounds were screened for in vitro antiproliferative activity against four human cancer cell lines A549 (human lung cancer cell line), KB (human oral epidermoid carcinoma cell line), Hela (human cervical carcinoma cell line), MCF-7 (human breast cancer cell line) and two human normal cell lines HUVEC (human umbilical vein endothelial cell) and LO2 (human normal hepatocytes) through the 3-(4,5-dimethyl-2-thiazolyl)-2,5-diphenyl-2-H-tetrazolium bromide (MTT) assay.
(§2) Non-small-cell lung cancer (A549), oral epidermoid carcinoma (KB), cervical cancer (Hela) and breast cancer (MCF-7) cells were purchased from the American Type Culture Collection (ATCC, America). Human umbilical vein endothelial cell (HUVEC) and human normal hepatocytes (LO2) cells were provided by Guangzhou Medical University (Guangzhou, China). A549 and KB cells were cultured in RMPI-1640 medium (Gibco, America). Hela, MCF-7 and LO2 cells were cultured in DMEM medium (Gibco, America). HUVEC cells were cultured in Ham’s F-12K medium (Gibco, America). All the mediums were supplemented with 10% fetal bovine serum (FBS) (BI, State of Israel), 100 U/mL penicillin and 100 μg/mL streptomycin (Gibco, America), and all the cells were incubated in a sterile incubator at 37°C in an environment of 5% CO2. The tested compounds were dissolved in dimethyl sulfoxide (DMSO) at a concentration of 10 mM, and then diluted into different concentration of solutions by culture medium. The final concentration of DMSO was <0.01% (v/v) in all drug treatment groups to avoid the toxicity in the biological system. Untreated cells were used as a blank control and 5-fluorouracil treated cells were used as a positive control.
(§3) The incubated tumor cells were planted into 96-well plates (4×10^3 cells/well). After 24 h, the cells were adherent to the wall and treated with the compound 6e in different concentrations (0.78, 1.56, 3.12, 6.25, 12.50, 25.00, and 50.00 μM) for 72 h. Afterwards, the medium was supplemented with 10 µL MTT solution. After 4 h, the culture medium was removed and 100 µL DMSO was added. The absorbance was determined at the wavelength of 540 nm and 655 nm using a microplate reader (BioTek Epoch, America). The results were collected from three independent experiments. The IC50 was then calculated by using GraphPad Prism Software (version 7.0) and non-linear regression (curve fit).
On the technique in general: Tetrazolium dyes change colour on reduction, which living cells bring about.

Data set [2] has as its system KB (human oral epidermoid carcinoma cell line). The data set can be described thus: MTT antiproliferative assay, KB. Particulars: Homo sapiens; MTT, 72 h. Type of data set: cell-based.
Description: as §1, §2, §3

For data set [3], the system named is Hela (human cervical carcinoma cell line). The data set is described as follows: MTT antiproliferative assay, Hela. Type of data set: cell-based. Particulars: 72 h.
Description: as §1, §2, §3

Data set [4] has as its system MCF-7 (human breast cancer cell line). The data set is described as follows: MTT antiproliferative assay, MCF-7. Type of data set: cell-based. Particulars: MCF7, 72 h.
Description: as §1, §2, §3

Data set [5] deals with HUVEC (human umbilical vein endothelial cell). The data set is described as follows: MTT antiproliferative assay, HUVEC normal cells. It counts as cell-based. Particulars: 72 h.
Description: as §1, §2, §3

Data set [6] relates to LO2 (human normal hepatocytes). The data set can be described thus: MTT antiproliferative assay, LO2 normal cells. Type of data set: cell-based. Particulars: Hepatocyte, 72 h.
Description: as §1, §2, §3

Data set [7] deals with various human cancer cells. More on the design: method as in Yan et al., 2022. To be noted: ref Yan et al., 2022; read-out: IC50 values, anti-proliferative activities towards various human cancer cells; cited from earlier work.

As usually defined, the IC50 is the concentration needed to halve the response being measured. Broadly, the melting point is the temperature, or range, at which the solid turns liquid. `O=CC=C(Cl)c1cc2ccc(Br)cc2oc1=O` [Compound 5d, 3-(7-Bromo-2-oxo-2H-chromen-3-yl)-3-chloroacrylaldehyde] gave a melting point of 182 to 183 °C. The “more potent than 5a and 5-FU” value in data set [1] (A549 cells, relative to 5a and 5-FU) is on record as 10 fold. Moreover, the IC50 in data set [1] was 0.7 ± 0.05 µM. This compound had an IC50 in data set [2] of 1.12 ± 0.03 µM. The compound further gave an IC50 in data set [3] of 1.36 ± 0.43 µM. Further, in data set [4], the IC50 turned out to be 4.23 ± 0.15 µM. Moreover, 10.52 ± 0.02 µM corresponded to half-maximal inhibition in data set [5] (IC50). Moreover, in data set [6], the IC50 turned out to be 42.97 ± 0.04 µM.

As for `O=CC=C(Cl)c1cc2cc(Br)ccc2oc1=O` [Compound 5g, 3-(6-Bromo-2-oxo-2H-chromen-3-yl)-3-chloroacrylaldehyde], the melting point lay in the range of 199 to 201 °C. In data set [1], this compound displayed an IC50 of 2.45 ± 0.01 µM. The compound further had an IC50 in data set [2] of 0.87 ± 0.01 µM. Besides, in data set [3], the IC50 amounted to 13.4 ± 0.22 µM. This compound showed an IC50 in data set [4] of 9.25 ± 0.1 µM. In data set [5], this compound registered a half-maximal inhibitory concentration (IC50) of 10.9 ± 0.02 µM. The IC50 in data set [6] came to 66.36 ± 0.09 µM.

As to `COc1ccc2c(/C=C(\C)C(=O)c3cc(OC)c(OC)c([Se]C)c3)c[nH]c2c1` [compound J], the IC50 in data set [7] was 0.008 to 0.035 µM.

For the compound `Cc1ccc2oc(=O)c(C(Cl)=CC=O)cc2c1` [Compound 5f, 3-Chloro-3-(6-methyl-2-oxo-2H-chromen-3-yl)acrylaldehyde], the melting point was in the range of 179 to 181 °C. Further, in data set [1], the IC50 turned out to be 4.57 ± 0.01 µM. Also, 2.22 ± 0.04 µM corresponded to half-maximal inhibition in data set [2] (IC50). In addition, in data set [3], the IC50 was 3.82 ± 0.11 µM. The compound further showed a half-maximal inhibitory concentration (IC50) in data set [4] of 20.1 ± 0.32 µM. Also, inhibition in data set [5] was half-maximal at 27.38 ± 0.24 µM (IC50). Besides, it took 25.01 ± 0.03 µM to reach half-maximal inhibition in data set [6] (IC50).

Turning to `O=c1[nH]cc(F)c(=O)[nH]1` [5-FU, 5-Fluorouracil, reference compound], the IC50 in data set [1] worked out at 7.41 ± 0.09 µM; in data set [2] it was 5.75 ± 2.23 µM; in data set [3], 1.37 ± 1.72 µM; in data set [4], 19.2 ± 3.29 µM; in data set [5], 4.08 ± 0.06 µM; in data set [6] it was 10.68 ± 0.03 µM.

`CCN(CC)c1ccc2cc(C(Cl)=CC=O)c(=O)oc2c1` [Compound 5c, 3-Chloro-3-(7-(diethylamino)-2-oxo-2H-chromen-3-yl)acrylaldehyde] showed a melting point of 206 to 208 °C. The IC50 in data set [1] stood at 7.51 ± 0.02 µM. This compound displayed an IC50 in data set [2] of 3.15 ± 0.09 µM. Inhibition in data set [3] was half-maximal at 4.85 ± 0.19 µM (IC50). Further, 18.99 ± 0.18 µM corresponded to half-maximal inhibition in data set [4] (IC50). The compound also returned an IC50 in data set [5] of 6.42 ± 0.51 µM. In data set [6], it took 52.65 ± 0.07 µM to reach half-maximal inhibition (IC50).

With `O=CC=C(Cl)c1cc2ccc(O)cc2oc1=O` [Compound 5b, 3-Chloro-3-(7-hydroxy-2-oxo-2H-chromen-3-yl)acrylaldehyde], the melting point is 204 to 205 °C. In addition, in data set [1], the IC50 was > 100 µM. In addition, the half-maximal inhibitory concentration (IC50) in data set [2] is > 100 µM. Also, the concentration for half-maximal inhibition (IC50) in data set [3] was > 100 µM. It took 6.74 ± 0.64 µM to reach half-maximal inhibition in data set [4] (IC50). Further, the IC50 in data set [5] is > 100 µM. In addition, in data set [6], the IC50 is > 100 µM.

As for `COc1ccc2cc(C(Cl)=CC=O)c(=O)oc2c1` [Compound 6a, 3-Chloro-3-(7-methoxy-2-oxo-2H-chromen-3-yl)acrylaldehyde], the melting point was in the range of 202 to 203 °C. Besides, in data set [1], it took 2.78 ± 0.01 µM to reach half-maximal inhibition (IC50). The compound also came in with an IC50 in data set [2] of 3.41 ± 0.4 µM. For the same compound, the IC50 in data set [3] is > 100 µM. This compound had an IC50 in data set [4] of 12.4 ± 0.49 µM. For the same compound, the IC50 in data set [5] is 10.09 ± 0.07 µM. This compound also had an IC50 in data set [6] of 61.04 ± 0.03 µM.

The compound `CCOc1ccc2cc(C(Cl)=CC=O)c(=O)oc2c1` [Compound 6b, 3-Chloro-3-(7-ethoxy-2-oxo-2H-chromen-3-yl)acrylaldehyde] showed a melting point of 195 to 196 °C. In data set [1], this compound displayed an IC50 of 11.34 ± 0.07 µM. Also, the IC50 in data set [2] is > 100 µM. Further, 2.91 ± 0.17 µM corresponded to half-maximal inhibition in data set [3] (IC50). The compound further had an IC50 in data set [4] of 23.29 ± 0.2 µM. Further, the IC50 in data set [5] was > 100 µM. Moreover, in data set [6], the IC50 was > 100 µM.

`CCCOc1ccc2cc(C(Cl)=CC=O)c(=O)oc2c1` [Compound 6c, 3-Chloro-3-(2-oxo-7-propoxy-2H-chromen-3-yl)acrylaldehyde] displayed a melting point of 150 to 152 °C. The compound further registered an IC50 in data set [1] of 6.28 ± 0.04 µM. This compound also returned an IC50 in data set [2] of 4.54 ± 0.11 µM. Moreover, the IC50 in data set [3] is > 100 µM. Further, 1.73 ± 0.01 µM corresponded to half-maximal inhibition in data set [4] (IC50). The compound also yielded an IC50 in data set [5] of 53.92 ± 0.46 µM. In data set [6], this compound had an IC50 of 43.52 ± 0.03 µM.

For `CC(C)Oc1ccc2cc(C(Cl)=CC=O)c(=O)oc2c1` [Compound 6d, 3-Chloro-3-(7-isopropoxy-2-oxo-2H-chromen-3-yl)acrylaldehyde], the melting point is 149 to 151 °C. For the same compound, the IC50 in data set [1] was 5.61 ± 0.01 µM. The same compound had an IC50 in data set [2] of 4.28 ± 0.02 µM. The compound further had an IC50 in data set [3] of 22.7 ± 0.21 µM. In data set [4], this compound came in with an IC50 of 51.63 ± 0.13 µM. In data set [5], the IC50 came to 31.92 ± 0.07 µM. Further, the IC50 in data set [6] is 33.27 ± 0.02 µM.

`O=CC=C(Cl)c1cc2ccc(OCc3cccc(Br)c3)cc2oc1=O` [Compound 6g, 3-(7-((3-Bromobenzyl)oxy)-2-oxo-2H-chromen-3-yl)-3-chloroacrylaldehyde] displayed a melting point of 217 to 219 °C. Further, the IC50 in data set [1] is > 100 µM. For the same compound, the IC50 in data set [2] is > 100 µM. The IC50 in data set [3] was > 100 µM. Also, in data set [4], it took 5.13 ± 0.07 µM to reach half-maximal inhibition (IC50). Also, the IC50 in data set [5] was > 100 µM. Moreover, in data set [6], the IC50 was > 100 µM.

The compound `O=CC=C(Cl)c1cc2cc(O)ccc2oc1=O` [Compound 5e, 3-Chloro-3-(6-hydroxy-2-oxo-2H-chromen-3-yl)acrylaldehyde] showed a melting point of 250 to 252 °C. In data set [1], this compound registered an IC50 of 6.67 ± 0.01 µM. Moreover, the midpoint of inhibition in data set [2], the IC50, lay at 3.23 ± 0.3 µM. In addition, the IC50 in data set [3] is > 100 µM. In data set [4], this compound came in with an IC50 of 8.71 ± 0.31 µM. The IC50 in data set [5] was found to be 34.84 ± 0.11 µM. In data set [6], the IC50 worked out at 14.11 ± 0.04 µM.

Consider `O=CC=C(Cl)c1cc2ccc(OCc3ccc([N+](=O)[O-])cc3)cc2oc1=O` [Compound 6f, 3-Chloro-3-(7-((4-nitrobenzyl)oxy)-2-oxo-2H-chromen-3-yl)acrylaldehyde], for which the melting point is 250 to 252 °C. For the same compound, the IC50 in data set [1] is > 100 µM. The IC50 in data set [2] is > 100 µM. For the same compound, the IC50 in data set [3] is > 100 µM. In addition, the IC50 in data set [4] was > 100 µM. In addition, the IC50 in data set [5] is > 100 µM. Also, the IC50 in data set [6] was > 100 µM.

In turn, `O=CC=C(Cl)c1cc2ccccc2oc1=O` [Compound 5a, 3-Chloro-3-(2-oxo-2H-chromen-3-yl)acrylaldehyde] had a melting point of 167 to 169 °C. It took 7.97 ± 0.01 µM to reach half-maximal inhibition in data set [1] (IC50). Besides, the IC50 in data set [2] is 1.3 ± 0.02 µM. For the same compound, in data set [3], it took 1.01 ± 0.28 µM to reach half-maximal inhibition (IC50). Moreover, in data set [4], the IC50 was 3.55 ± 0.17 µM. The compound further showed an IC50 in data set [5] of 22.8 ± 0.35 µM. In data set [6], this compound displayed an IC50 of 40.34 ± 0.02 µM.
